Laboratory results reported in patent US20170037028A1 (BAYER PHARMA AKTIENGESELLSCHAFT, priority 2013, published 2017).
Read-outs that look alike come from different tables or passages of the source.

Molecular target: T1, GLUT1 (Homo sapiens, UniProt P11166)
T1 sequence (P11166 1-492): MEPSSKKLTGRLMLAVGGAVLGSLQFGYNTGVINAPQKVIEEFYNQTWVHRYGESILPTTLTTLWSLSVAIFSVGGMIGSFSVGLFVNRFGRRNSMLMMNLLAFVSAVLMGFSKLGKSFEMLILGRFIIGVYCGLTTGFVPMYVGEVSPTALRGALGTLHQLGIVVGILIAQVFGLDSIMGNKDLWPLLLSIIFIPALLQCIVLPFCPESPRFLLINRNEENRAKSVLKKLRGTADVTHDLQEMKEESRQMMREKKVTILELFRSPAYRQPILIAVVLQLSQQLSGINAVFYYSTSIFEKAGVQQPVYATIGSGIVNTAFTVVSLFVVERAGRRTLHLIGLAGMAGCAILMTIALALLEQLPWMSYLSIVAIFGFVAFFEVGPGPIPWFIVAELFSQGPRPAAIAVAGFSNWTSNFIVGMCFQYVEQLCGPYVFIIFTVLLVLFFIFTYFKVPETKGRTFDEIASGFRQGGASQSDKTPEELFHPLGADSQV
Test: Indirect measurement of GLUT1 activity by quantification of intracellular ATP levels (glucose induced ATP increase)
Type: cell-based
Parameters: endogenous in cells; host or cells: DLD1 or CHO-K1
Settings: read-out: IC50 regarding glucose induced ATP increase (GLUT1 inhibition)
Procedure, shortened: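 DLD1 or CHO-K1 cells were starved overnight in glucose-free medium with 1% FCS, then combined with an oxidative phosphorylation inhibitor. GLUT1 activity was read as glucose-induced ATP increase, GLUT2 as fructose-induced. Intracellular ATP was quantified by CellTiter-Glo luminescence.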

Row | Compound | IC50 [nM] | IC50 (DLD1 cells, 0.1 mM glucose, 1 μM Rotenone, 15 min, CellTiter-Glo ATP readout, IC50 values standardized to cytochalasin B IC50 values) [nM]
1 | Cc1c(NC(=O)c2cc(C(N)=O)nc3ccccc23)c(C(F)(F)F)nn1Cc1cccc(S(C)(=O)=O)c1 [Example 1636] | 292 | 
2 | Cc1c(NC(=O)c2cc(C(N)=O)nc3cc(F)ccc23)c(C(F)(F)F)nn1Cc1cccc(S(C)(=O)=O)c1 [Example 1637] | 288 | 
3 | Cc1c(NC(=O)c2cc(C(N)=O)nc3cc(F)c(Cl)cc23)c(C(F)(F)F)nn1Cc1cccc(S(C)(=O)=O)c1 [Example 1638] | 61.3 | 
4 | Cc1c(NC(=O)c2cc(C(N)=O)nc3cccc(F)c23)c(C(F)(F)F)nn1Cc1cccc(S(C)(=O)=O)c1 [Example 1639] | 273 | 
5 | Cc1nn(Cc2cccc(S(C)(=O)=O)c2)c(C)c1NC(=O)c1cc(C(N)=O)nc2cc(F)ccc12 [Example 1640] | 277 | 
6 | Cc1nn(Cc2cccc(S(C)(=O)=O)c2)c(C)c1NC(=O)c1cc(C(N)=O)nc2cccc(F)c12 [Example 1641] | 168 | 
7 | Cc1nn(Cc2cccc(S(C)(=O)=O)c2)c(C)c1NC(=O)c1cc(C(N)=O)nc2ccccc12 [Example 1642] | 289 | 
8 | Cc1nn(Cc2cccc(S(C)(=O)=O)c2)c(C)c1NC(=O)c1cc(C(N)=O)nc2cc(F)c(Cl)cc12 [Example 1643] | 34.4 | 
9 | COc1cc(C#N)ccc1Cn1nc(C(F)(F)F)c(NC(=O)c2cc(C(N)=O)nc3cc(F)ccc23)c1C [Example 1646] | 2.3 | 
10 | COc1cc(C#N)ccc1Cn1nc(C(F)(F)F)c(NC(=O)c2cc(C(N)=O)nc3cccc(F)c23)c1C [Example 1647] | 2.7 | 
11 | COc1cc(C#N)ccc1Cn1nc(C(F)(F)F)c(NC(=O)c2cc(C(N)=O)nc3cc(F)c(Cl)cc23)c1C [Example 1648] | 2.3 | 
12 | COc1cc(C#N)ccc1Cn1nc(C)c(NC(=O)c2cc(C(N)=O)nc3cc(F)ccc23)c1C [Example 1649] | 67.2 | 
13 | COc1cc(C#N)ccc1Cn1nc(C)c(NC(=O)c2cc(C(N)=O)nc3cccc(F)c23)c1C [Example 1650] | 10.3 | 
14 | COc1cc(C#N)ccc1Cn1nc(C)c(NC(=O)c2cc(C(N)=O)nc3cc(F)c(Cl)cc23)c1C [Example 1651] | 3.2 | 
15 | Cc1c(NC(=O)c2cc(C(N)=O)nc3ccccc23)c(C(F)(F)F)nn1Cc1cc(F)ccc1C#N [Example 1652] | 112 | 
16 | Cc1c(NC(=O)c2cc(C(N)=O)nc3cc(F)ccc23)c(C(F)(F)F)nn1Cc1cc(F)ccc1C#N [Example 1653] | 266 | 
17 | Cc1c(NC(=O)c2cc(C(N)=O)nc3cccc(F)c23)c(C(F)(F)F)nn1Cc1cc(F)ccc1C#N [Example 1654] | 221 | 
18 | Cc1c(NC(=O)c2cc(C(N)=O)nc3cc(F)c(Cl)cc23)c(C(F)(F)F)nn1Cc1cc(F)ccc1C#N [Example 1655] | 238 | 
19 | Cc1c(NC(=O)c2cc(C(N)=O)nc3cccc(F)c23)c(C(F)(F)F)nn1Cc1ccc(F)cc1C#N [Example 1656] | 12.5 | 
20 | Cc1c(NC(=O)c2cc(C(N)=O)nc3cc(F)c(Cl)cc23)c(C(F)(F)F)nn1Cc1ccc(F)cc1C#N [Example 1657] | 3.4 | 
21 | Cc1c(NC(=O)c2cc(C(N)=O)nc3cc(F)ccc23)c(C(F)(F)F)nn1Cc1ccc(F)cc1C#N [Example 1658] | 3.2 | 

Row | Compound | IC50 [nM] | IC50 (DLD1 cells, 0.1 mM glucose, 1 μM Rotenone, 15 min, CellTiter-Glo ATP readout, IC50 values standardized to cytochalasin B IC50 values) [nM]
22 | Cc1c(NC(=O)c2cc(C(N)=O)nc3ccccc23)c(C(F)(F)F)nn1Cc1ccc(F)cc1C#N [Example 1659] | 4.7 | 
23 | Cc1nn(Cc2ccc(F)cc2C#N)c(C)c1NC(=O)c1cc(C(N)=O)nc2cc(F)ccc12 [Example 1660] | 1.3 | 
24 | Cc1nn(Cc2ccc(F)cc2C#N)c(C)c1NC(=O)c1cc(C(N)=O)nc2ccccc12 [Example 1661] | 3.4 | 
25 | Cc1nn(Cc2ccc(F)cc2C#N)c(C)c1NC(=O)c1cc(C(N)=O)nc2cccc(F)c12 [Example 1662] | 4 | 
26 | Cc1nn(Cc2ccc(F)cc2C#N)c(C)c1NC(=O)c1cc(C(N)=O)nc2cc(F)c(Cl)cc12 [Example 1663] | 1.1 | 
27 | COc1cc(Cn2nc(C(F)(F)F)c(NC(=O)c3cc(C(N)=O)nc4cc(F)ccc34)c2C)ccc1C#N [Example 1664] | 2.6 | 
28 | COc1cc(Cn2nc(C(F)(F)F)c(NC(=O)c3cc(C(N)=O)nc4cccc(F)c34)c2C)ccc1C#N [Example 1665] | 3.8 | 
29 | COc1cc(Cn2nc(C(F)(F)F)c(NC(=O)c3cc(C(N)=O)nc4cc(F)c(Cl)cc34)c2C)ccc1C#N [Example 1666] | 0.8 | 
30 | Cc1c(NC(=O)c2cc(C(N)=O)nc3ccccc23)c(C(F)(F)F)nn1Cc1ccc(C(C)(C)C#N)cc1 [Example 1667] | 46.6 | 
31 | Cc1c(NC(=O)c2cc(C(N)=O)nc3cc(F)ccc23)c(C(F)(F)F)nn1Cc1ccc(C#N)cc1O [Example 1668] | 23.6 | 
32 | Cc1c(NC(=O)c2cc(C(N)=O)nc3cc(F)ccc23)c(C(F)(F)F)nn1Cc1cc(C#N)no1 [Example 1669] |  | 88.8
33 | CCOC(=O)c1cc(Cn2nc(C)c(NC(=O)c3cc(C(N)=O)nc4cc(F)ccc34)c2C)on1 [Example 1670] | 17.1 | 
34 | Cc1c(NC(=O)c2cc(C(N)=O)nc3ccccc23)c(C(F)(F)F)nn1CC(=O)Nc1ccccc1O [Example 1671] | 149 | 
35 | Cc1c(NC(=O)c2cc(C(N)=O)nc3ccccc23)c(C(F)(F)F)nn1Cc1cc(C#N)no1 [Example 1672] | 151 | 
36 | Cc1c(NC(=O)c2cc(C(N)=O)nc3cc(F)c(Cl)cc23)c(C(F)(F)F)nn1Cc1cc(C#N)no1 [Example 1673] | 56.1 | 
37 | Cc1c(NC(=O)c2cc(C(N)=O)nc3cc(F)ccc23)c(C(F)(F)F)nn1Cc1csc(C#N)n1 [Example 1674] | 21 | 
38 | Cc1c(NC(=O)c2cc(C(N)=O)nc3cc(F)c(Cl)cc23)c(C(F)(F)F)nn1Cc1cc(CN2CCOCC2)on1 [Example 1676] | 81.8 | 
39 | CCOC(=O)c1cc(Cn2nc(C(F)(F)F)c(NC(=O)c3cc(C(N)=O)nc4cc(F)ccc34)c2C)on1 [Example 1677] | 353 | 
40 | Cc1c(NC(=O)c2cc(C(N)=O)nc3cc(F)ccc23)c(C(F)(F)F)nn1Cc1nc2ccccc2o1 [Example 1678] | 57.7 | 
41 | Cc1c(NC(=O)c2cc(C(N)=O)nc3ccccc23)c(C(F)(F)F)nn1Cc1ccc(C#N)s1 [Example 1679] | 18.6 | 
42 | COC(=O)c1coc(Cn2nc(C(F)(F)F)c(NC(=O)c3cc(C(N)=O)nc4ccccc34)c2C)n1 [Example 1680] | 146 | 

Row | Compound | IC50 [nM] | IC50 (DLD1 cells, 0.1 mM glucose, 1 μM Rotenone, 15 min, CellTiter-Glo ATP readout, IC50 values standardized to cytochalasin B IC50 values) [nM]
43 | COC(=O)c1coc(Cn2nc(C(F)(F)F)c(NC(=O)c3cc(C(N)=O)nc4cc(F)ccc34)c2C)n1 [Example 1681] | 86.7 | 
44 | COC(=O)c1coc(Cn2nc(C(F)(F)F)c(NC(=O)c3cc(C(N)=O)nc4cc(F)c(Cl)cc34)c2C)n1 [Example 1682] | 36.7 | 
45 | CCOC(=O)c1cc(Cn2nc(C(F)(F)F)c(NC(=O)c3cc(C(N)=O)nc4cc(F)c(Cl)cc34)c2C)on1 [Example 1683] | 109 | 
46 | Cc1c(NC(=O)c2cc(C(N)=O)nc3ccccc23)c(C(F)(F)F)nn1Cc1nc(C(=O)O)co1 [Example 1684] | 721 | 
47 | Cc1c(NC(=O)c2cc(C(N)=O)nc3cc(F)c(Cl)cc23)c(C(F)(F)F)nn1Cc1nc(C(=O)O)co1 [Example 1686] | 1290 | 
48 | Cc1c(NC(=O)c2cc(C(N)=O)nc3cc(F)ccc23)c(C(F)(F)F)nn1Cc1cccc(C#N)n1 [Example 1687] | 128 | 
49 | Cc1c(NC(=O)c2cc(C(N)=O)nc3cccc(F)c23)c(C(F)(F)F)nn1Cc1cccc(C#N)n1 [Example 1688] | 86.8 | 
50 | Cc1c(NC(=O)c2cc(C(N)=O)nc3cc(F)c(Cl)cc23)c(C(F)(F)F)nn1Cc1cccc(C#N)n1 [Example 1689] | 30.9 | 
51 | Cc1c(NC(=O)c2cc(C(N)=O)nc3ccccc23)c(C(F)(F)F)nn1Cc1cccc(C#N)n1 [Example 1690] | 353 | 
52 | Cc1nn(CC(=O)Nc2cccc(C#N)c2)c(C)c1NC(=O)c1cc(C(N)=O)nc2ccccc12 [Example 1691] | 556 | 
53 | Cc1nn(CC(=O)Nc2ccc(F)cc2)c(C)c1NC(=O)c1cc(C(N)=O)nc2ccccc12 [Example 1692] | 208 | 
54 | Cc1nn(CC(=O)N(C)c2ccc(F)cc2)c(C)c1NC(=O)c1cc(C(N)=O)nc2ccccc12 [Example 1693] | 43.6 | 
55 | Cc1cc(Cn2nc(C(F)(F)F)c(NC(=O)c3cc(C(N)=O)nc4cccc(F)c34)c2C)ccc1C#N [Example 1694] | 1.2 | 
56 | Cc1cc(Cn2nc(C(F)(F)F)c(NC(=O)c3cc(C(N)=O)nc4cc(F)ccc34)c2C)ccc1C#N [Example 1695] | 4.7 | 
57 | Cc1cc(Cn2nc(C)c(NC(=O)c3cc(C(N)=O)nc4cc(F)c(Cl)cc34)c2C)ccc1C#N [Example 1696] | 0.9 | 
58 | Cc1cc(Cn2nc(C)c(NC(=O)c3cc(C(N)=O)nc4cccc(F)c34)c2C)ccc1C#N [Example 1697] | 0.5 | 
59 | Cc1cc(Cn2nc(C)c(NC(=O)c3cc(C(N)=O)nc4cc(F)ccc34)c2C)ccc1C#N [Example 1698] | 1.2 | 
60 | Cc1ccc(C#N)c(Cn2nc(C)c(NC(=O)c3cc(C(N)=O)nc4cc(F)c(Cl)cc34)c2C)c1 [Example 1699] | 11.3 | 
61 | Cc1ccc(C#N)c(Cn2nc(C(F)(F)F)c(NC(=O)c3cc(C(N)=O)nc4cc(F)ccc34)c2C)c1 [Example 1700] | 38.6 | 
62 | Cc1nn(CC(=O)Nc2cccc(F)c2)c(C)c1NC(=O)c1cc(C(N)=O)nc2ccccc12 [Example 1701] | 165 | 
